Experimental data taken from patent US20250170248A1, “SMARCA DEGRADERS AND USES THEREOF” (Kymera Therapeutics, Inc., priority 2021, published 2025).

What was measured:
Assay type in all cases: cell-based
[1] = molecular target: T1, SMARCA2 (Homo sapiens, UniProt P51531); experiment: MSD SMARCA2 degradation in A549 cell line; conditions: for SMARCA2 MSD A549 degradation 24 h: Average Dmax % / DC50: A549 cells; for DC50 / Dmax: 24 h; for DC50: read-out: SMARCA2 MSD A549 degradation 24 h: Average external-Abs DC50; for Dmax: A549, A549 cells
T1 sequence (P51531 whole entry): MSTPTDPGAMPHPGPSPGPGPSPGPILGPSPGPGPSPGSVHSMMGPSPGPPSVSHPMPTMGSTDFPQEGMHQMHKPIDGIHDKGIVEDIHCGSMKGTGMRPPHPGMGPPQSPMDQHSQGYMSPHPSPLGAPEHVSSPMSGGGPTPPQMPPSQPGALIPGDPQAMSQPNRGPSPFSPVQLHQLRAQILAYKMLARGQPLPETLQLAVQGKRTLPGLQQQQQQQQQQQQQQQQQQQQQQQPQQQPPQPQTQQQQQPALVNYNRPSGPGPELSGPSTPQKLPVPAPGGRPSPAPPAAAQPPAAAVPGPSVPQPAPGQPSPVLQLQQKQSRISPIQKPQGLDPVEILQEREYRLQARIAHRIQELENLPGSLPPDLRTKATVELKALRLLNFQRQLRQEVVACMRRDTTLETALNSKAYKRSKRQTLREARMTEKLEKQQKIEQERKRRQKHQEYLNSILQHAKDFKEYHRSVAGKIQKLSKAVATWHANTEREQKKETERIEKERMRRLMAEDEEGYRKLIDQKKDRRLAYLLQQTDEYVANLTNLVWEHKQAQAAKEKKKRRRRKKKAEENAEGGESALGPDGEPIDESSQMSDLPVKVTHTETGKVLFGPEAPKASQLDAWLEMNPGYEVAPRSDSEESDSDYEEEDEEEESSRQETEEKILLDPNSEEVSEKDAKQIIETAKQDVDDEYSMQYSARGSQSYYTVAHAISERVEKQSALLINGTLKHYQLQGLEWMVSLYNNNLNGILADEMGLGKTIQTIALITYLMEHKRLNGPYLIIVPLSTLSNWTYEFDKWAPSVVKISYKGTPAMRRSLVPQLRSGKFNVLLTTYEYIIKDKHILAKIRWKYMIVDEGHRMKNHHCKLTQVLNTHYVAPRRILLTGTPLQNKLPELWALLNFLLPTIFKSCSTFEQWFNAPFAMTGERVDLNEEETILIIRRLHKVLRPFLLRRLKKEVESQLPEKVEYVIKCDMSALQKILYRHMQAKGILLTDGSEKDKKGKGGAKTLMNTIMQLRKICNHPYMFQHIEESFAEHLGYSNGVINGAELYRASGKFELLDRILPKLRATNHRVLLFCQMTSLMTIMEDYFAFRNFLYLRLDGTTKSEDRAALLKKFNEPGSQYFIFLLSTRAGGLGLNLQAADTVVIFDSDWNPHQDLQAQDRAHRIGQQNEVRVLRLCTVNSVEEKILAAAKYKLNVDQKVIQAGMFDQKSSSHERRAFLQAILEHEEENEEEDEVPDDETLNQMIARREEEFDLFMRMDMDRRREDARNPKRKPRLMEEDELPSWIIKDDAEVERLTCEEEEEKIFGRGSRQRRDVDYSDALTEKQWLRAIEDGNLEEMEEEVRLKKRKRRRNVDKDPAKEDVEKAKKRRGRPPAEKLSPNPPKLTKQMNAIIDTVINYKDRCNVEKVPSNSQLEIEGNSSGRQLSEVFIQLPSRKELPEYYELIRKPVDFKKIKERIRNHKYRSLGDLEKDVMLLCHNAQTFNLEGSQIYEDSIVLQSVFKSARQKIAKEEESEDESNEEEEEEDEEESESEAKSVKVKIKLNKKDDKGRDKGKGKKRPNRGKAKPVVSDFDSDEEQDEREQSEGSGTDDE
Description: Example 10. MSD SMARCA2 Degradation in A549 Cell Line
Cells were seeded into 96-well plates (A549 cells: 2×10^4 cells/well/100 ul media) and incubated overnight. The next day, 200 nL compound were added into the intermediate plate with Echo (Labcyte 550) from source plate containing a 3-fold serial dilution from top concentration of 1 mM. The culture medium was changed with 8 0ul of fresh medium and 80 μL of 2× compound solution was added into the well to make a final concentration of 1000 nM, 333.3 nM, 111.1 nM, 37.04 nM, 12.35 nM, 4.115 nM, 1.372 nM, 0.457 nM, 0.152 nM and 0 nM (DMSO). The wells were mixed and then incubated for 24 hours. The media was aspirated from the cultures and 60 ul pre-chilled PIPA lysis buffer (Boston BioProducts BP-115D) with protease/phosphatase inhibitor (Roche 05892791001/Roche 04906837001) was added into the well to lyze the cells for 20 minutes at 4° C. The MSD plate (L15XA) was coated with 40 uL cell lysate and incubated at 4° C. overnight. The next day, the plate was washed three times with TBST (CST #9997S), 150 ul/well. The MSD plates was blocked with 150 ul blocking buffer per well and shaked for 1 hr at RT, 600 rpm. The blocking buffer was 3% Blocker A (MSD, R93BA-4) in TBST. The MSD plate was washed three times with 150 uL/well of TBST and 25 ul/well of detection antibody (Rabbit anti-SMARCA2/BRM antibody, 100 μg/mL, ab223735) was added at final concentration of 1 μg/mL diluted in 1% Blocking buffer and shaken for 1 hour at RT, 600 rpm. The MSD plate was washed three times with 150 ul/well of TBST and 25 ul/well of SULFO-TAG anti-rabbit antibody (MSD, R32AB-1) was added at final concentration of 1 μg/ml diluted in 1% Blocking buffer and shaken for 1 hour at RT, 600 rpm. The MSD plate was washed three times with 150 uL/well of TBST and 150 ul/well of 2× MSD reading buffer diluted from 4× (MSD, R92TC-2) with water was added. Lastly, the MSD instrument was read.
The letter codes for SMARCA2 degradation potency (DC50) include: A (<10 nM), B (10-50 nM), C (>50-100 nM), and D (>100 nM). The letter codes for the percentage of SMARCA degradation after 24 hours (Dmax %) include: A (>90% degradation), B (>70-90% degradation), C (50-70% degradation), and D (<50% degradation).

[2] = molecular target: T1, SMARCA2; experiment: SMARCA2 Western blot degradation in MV4-11 cells; parameters: SMARCA2/SMARCA4 protein degradation selectivity in MV4-11 cells; endogenous in cells; host or cells: MV4-11; conditions: for Dmax: MV4-11, MV4-11 cells, read-out: SMARCA2 MSD MV411 degradation 24 h: average Dmax %; for Dmax / DC50 / SMARCA2 MSD MV411 degradation 24 h: average Dmax %: 24 h; for DC50 / SMARCA2 MSD MV411 degradation 24 h: average Dmax % / Selectivity in MV411: MV4-11 cells; for DC50: read-out: SMARCA2 MSD MV411 degradation 24 h: Mean external-Abs DC50; for Selectivity in MV411: SMARCA2/4 selectivity
[3] = molecular target: T2, SMARCA4 (Homo sapiens, UniProt P51532); experiment: SMARCA4 Western blot degradation in MV4-11 cells; conditions: 24 h; for Dmax: MV4-11, MV4-11 cells, read-out: SMARCA4 MSD MV411 degradation 24 h: average Dmax %; for DC50: MV4-11 cells, read-out: SMARCA4 MSD MV411 degradation 24 h: Mean external-Abs DC50
T2 construct: SMARCA2/SMARCA4 protein degradation selectivity in MV4-11 cells; endogenous in cells; host or cells: MV4-11
T2 sequence (P51532 whole entry): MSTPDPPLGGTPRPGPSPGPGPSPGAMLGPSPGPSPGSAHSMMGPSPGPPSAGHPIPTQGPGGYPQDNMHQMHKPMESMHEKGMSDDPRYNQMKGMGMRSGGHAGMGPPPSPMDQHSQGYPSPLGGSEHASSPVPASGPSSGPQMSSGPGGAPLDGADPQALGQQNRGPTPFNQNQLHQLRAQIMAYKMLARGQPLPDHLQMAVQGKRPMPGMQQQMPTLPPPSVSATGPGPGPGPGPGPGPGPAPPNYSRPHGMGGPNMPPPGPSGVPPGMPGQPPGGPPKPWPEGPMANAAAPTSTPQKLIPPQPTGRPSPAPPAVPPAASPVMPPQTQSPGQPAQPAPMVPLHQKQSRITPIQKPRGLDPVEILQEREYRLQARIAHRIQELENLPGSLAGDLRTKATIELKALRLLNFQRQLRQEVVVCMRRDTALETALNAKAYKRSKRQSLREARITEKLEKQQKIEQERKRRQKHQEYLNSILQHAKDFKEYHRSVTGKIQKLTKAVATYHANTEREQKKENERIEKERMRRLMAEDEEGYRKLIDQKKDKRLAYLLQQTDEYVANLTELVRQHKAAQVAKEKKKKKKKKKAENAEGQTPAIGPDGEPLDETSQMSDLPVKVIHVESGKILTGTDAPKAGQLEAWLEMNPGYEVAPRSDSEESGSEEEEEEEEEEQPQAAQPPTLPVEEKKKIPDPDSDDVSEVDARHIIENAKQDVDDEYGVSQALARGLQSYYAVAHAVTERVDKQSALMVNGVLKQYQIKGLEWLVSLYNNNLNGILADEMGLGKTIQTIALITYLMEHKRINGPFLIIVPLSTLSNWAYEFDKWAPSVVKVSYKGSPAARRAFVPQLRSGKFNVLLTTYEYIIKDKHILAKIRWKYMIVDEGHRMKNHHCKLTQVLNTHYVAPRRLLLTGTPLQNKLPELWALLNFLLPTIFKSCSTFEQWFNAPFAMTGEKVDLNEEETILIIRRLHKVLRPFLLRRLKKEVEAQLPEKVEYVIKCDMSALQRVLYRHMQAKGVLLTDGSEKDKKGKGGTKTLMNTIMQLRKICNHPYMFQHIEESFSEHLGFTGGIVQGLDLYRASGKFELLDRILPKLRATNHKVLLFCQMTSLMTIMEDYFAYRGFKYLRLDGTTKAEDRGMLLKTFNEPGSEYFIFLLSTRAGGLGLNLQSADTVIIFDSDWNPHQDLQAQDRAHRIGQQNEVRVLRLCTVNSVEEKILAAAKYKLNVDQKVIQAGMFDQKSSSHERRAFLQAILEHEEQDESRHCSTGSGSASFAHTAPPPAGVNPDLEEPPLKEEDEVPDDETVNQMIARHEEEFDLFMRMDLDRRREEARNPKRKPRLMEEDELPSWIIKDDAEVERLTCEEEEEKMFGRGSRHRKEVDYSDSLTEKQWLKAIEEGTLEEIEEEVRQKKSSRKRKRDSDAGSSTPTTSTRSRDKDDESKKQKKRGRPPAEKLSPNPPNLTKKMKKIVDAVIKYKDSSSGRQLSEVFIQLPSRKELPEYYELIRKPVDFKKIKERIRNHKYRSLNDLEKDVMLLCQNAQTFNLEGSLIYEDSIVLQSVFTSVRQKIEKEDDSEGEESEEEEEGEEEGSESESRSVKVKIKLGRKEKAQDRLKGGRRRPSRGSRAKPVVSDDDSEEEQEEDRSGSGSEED
Description: Example 11. SMARCA2 and SMARCA4 Western Blot MV4-11 Degradation
Cells were seeded into 6-well plates (MV4-11:4×10^6 cells/well/1 ml) and 1 ml of 2× compound solution was added into the well to make the final concentration and the plates were mixed well and incubated for 24 hours (No cytotoxicity was observed). The cell were collected with media and spun at 3000 rpm for 5 minutes. The supernatant was aspirated and the well and the cells were washed with cold PBS once and combined for centrifugation again; the supernatant aspirated again. 200 uL pre-chilled RIPA lysis buffer (Boston BioProducts BP-115D) with protease/phosphatase inhibitor (Roche 05892791001/Roche 04906837001) was directly added into the tube to lyze the cells for 20 minutes on ice. The cell lysate were collected into EP tubes and spun at 13000 rpm for 20 minutes and 72 uL supernatant was transferred to a fresh EP tube containing 18 μL of 5× loading buffer (Beyotime Bio P0015) to make the loading samples. The samples were heated to 100° C. for 10 minutes and cooled to RT and microcentrifuged. 20 μL of samples were loaded onto SDS-PAGE gel (Novex, WG1402BOX) and the gel was run at 80 V for 20 minutes and 120 V for 1.5 hours. The samples were electrotransfer to a NC membrane using wet-transfer method with 250 mA for 2.5 hours. The membrane was blocked with LICOR blocking buffer (LI COR,927-50000) for 1 hour. The membrane was washed three times with TBST(CST #9997S), 5 minutes each. Incubation was performed with primary antibody prepared in blocking buffer with 0.1% Tween-20 (Solarbio, P8220) at 4° C. overnight (Anti-SMARCA2/BRM antibody (ab15597) 1:500; Anti-BRG1 antibody [EPR3912](ab108318) 1:1000; Rabbit anti-Bafl80 antibody [EPR15860](Abcam,ab196022) 1:1000; mouse anti-beta-Actin (8H10D10) (CST #3700) 1:10000). The membrane was washed three times with TBST, 5 minutes each. Incubation with secondary antibody was performed for 1 hour at RT (anti-rabbit IgG (Licor,926-32211) 1:5000; anti-mouse IgG (LI-COR, 926-68070) 1:5000). The membrane was washed three times with 5 minutes each and lastly the LiCOR was read.
The letter codes for SMARCA2/4 degradation potency (DC50) include: A (<1 nM), B (1-10 nM), C (>10-100 nM), and D (>100 nM). The letter codes for the percentage of SMARCA2/4 degradation after 24 hours (Dmax %) include: A (>90% degradation), B (>70-90% degradation), C (50-70% degradation), and D (<50% degradation). The letter codes of SMARCA2/4 selectivity include: A (>500 fold), B (>100-500 fold), C (10-100 fold), and D (<10 fold). Table 8. SMARCA2/4 Selectivity Results

Structure (SMILES)	SMARCA2 MSD A549 degradation 24 h: Average Dmax % [1]	DC50 [1]	Dmax [2]	DC50 [2]	Dmax [1]	SMARCA2 MSD MV411 degradation 24 h: average Dmax % [2]	Dmax [3]	DC50 [3]	Selectivity in MV411 [2]
C#Cc1ccc(CNC(=O)[C@@H]2C[C@@H](O)CN2C(=O)[C@@H](NC(=O)[C@H]2CCC3(CC2)C[C@H](N2CCC(c4cnc(N5CCN6c7cc(-c8cccc(Cl)c8O)nnc7NC[C@H]6C5)nc4)CC2)C3)C(C)(C)C)cc1 (single isomer, unassigned) [I-105]	A (A (>90% degradation))	> 100 nM	50 to 70%	10 to 100 nM	–	–	–	–	–
Cc1cc(F)ccc1C#CCNC(=O)[C@@H]1C[C@@H](O)CN1C(=O)[C@@H](NC(=O)[C@H]1CCC2(CC1)C[C@H](N1CCC(c3cnc(N4CCN5c6cc(-c7ccccc7O)nnc6NC[C@H]5C4)nc3)CC1)C2)C(C)(C)C (single isomer, unassigned) [I-106]	–	> 100 nM	< 50%	> 100 nM	< 50%	–	–	–	–
Cc1ncsc1-c1ccc(CNC(=O)[C@@H]2C[C@@H](O)CN2C(=O)[C@@H](NC(=O)[C@H]2CCC3(CC2)C[C@H](N2CCN(c4cnc(N5CCc6[nH]c7nnc(-c8ccccc8O)cc7c6[C@H]5C)nc4)CC2)C3)C(C)(C)C)cc1 (single isomer, unassigned) [I-112]	–	50 to 100 nM	50 to 70%	10 to 100 nM	> 90%	–	–	–	–
Cc1ncsc1-c1ccc(CNC(=O)[C@@H]2C[C@@H](O)CN2C(=O)[C@@H](NC(=O)[C@H]2CCC3(CC2)C[C@H](N2CCN(c4cnc(N5CCc6[nH]c7nnc(-c8ccccc8O)cc7c6[C@H]5C)nc4)CC2)C3)C(C)(C)C)cc1 (single isomer, unassigned) [I-118]	B (B (>70-90% degradation))	> 100 nM	–	10 to 100 nM	–	C (C (50-70% degradation))	–	–	–
C#Cc1ccc(CNC(=O)[C@@H]2C[C@@H](O)CN2C(=O)[C@@H](NC(=O)[C@H]2CCC3(CC2)C[C@H](N2CCC(c4cnc(N5CCN6c7cc(-c8cccc(Cl)c8O)nnc7NC[C@H]6C5)nc4)CC2)C3)C(C)(C)C)cc1 (single isomer, unassigned) [I-152]	–	> 100 nM	–	10 to 100 nM	70 to 90%	C (C (50-70% degradation))	–	–	–
C#Cc1ccc(CNC(=O)[C@@H]2C[C@@H](O)CN2C(=O)[C@@H](NC(=O)[C@H]2CCC3(CC2)C[C@H](N2CCC(c4cnc(N5CCN6c7cc(-c8cccc(Cl)c8O)nnc7NC[C@@H]6C5)nc4)CC2)C3)C(C)(C)C)cc1 (single isomer, unassigned) [I-153]	–	> 100 nM	70 to 90%	1 to 10 nM	> 90%	–	–	–	–
C#CCOc1cc(C(C(=O)N2C[C@H](O)C[C@H]2C(=O)NCc2ccc(-c3scnc3C)cc2O[C@H]2CC[C@@H](N3CCC(c4cnc(N5CCc6[nH]c7nnc(-c8ccccc8O)cc7c6[C@@H]5C)nc4)CC3)CC2)C(C)C)on1 (some centres unmarked) [I-39]	–	> 100 nM	–	–	50 to 70%	–	–	–	–
Cc1ncsc1-c1ccc(CNC(=O)[C@@H]2C[C@@H](O)CN2C(=O)[C@@H](NC(=O)C2(F)CC2)C(C)(C)C)c(OC2CN(CCN3CCC(c4cnc(N5CCc6[nH]c7nnc(-c8ccccc8O)cc7c6C5C)nc4)CC3)C2)c1 (some centres unmarked) [I-44]	–	–	70 to 90%	10 to 100 nM	–	–	70 to 90%	> 100 nM	D (D (<10 fold))
Cc1ncsc1-c1ccc(CNC(=O)[C@@H]2C[C@@H](O)CN2C(=O)[C@@H](NC(=O)N2CCC3(CC2)CC(N2CCC(c4cnc(N5CCc6[nH]c7nnc(-c8ccccc8O)cc7c6[C@@H]5C)nc4)CC2)C3)C(C)(C)C)cc1 [I-59]	–	–	–	–	< 50%	–	–	–	–
Cc1ncsc1-c1ccc(CNC(=O)[C@@H]2C[C@@H](O)CN2C(=O)[C@@H](NC(=O)N2CCC3(CC2)CC(N2CCC(c4cnc(N5CCN6c7cc(-c8ccccc8O)nnc7NC[C@H]6C5)nc4)CC2)C3)C(C)(C)C)cc1 [I-67]	–	–	< 50%	> 100 nM	–	–	< 50%	> 100 nM	C (C (10-100 fold))
Cc1ncsc1-c1ccc(CNC(=O)[C@@H]2C[C@@H](O)CN2C(=O)[C@@H](NC(=O)N2CCC3(CCC(N4CCC(c5cnc(N6CCN7c8cc(-c9ccccc9O)nnc8NC[C@H]7C6)nc5)CC4)CC3)CC2)C(C)(C)C)cc1 [I-68]	–	–	50 to 70%	10 to 100 nM	–	–	< 50%	> 100 nM	C (C (10-100 fold))
Cc1ncsc1-c1ccc(CNC(=O)[C@@H]2C[C@@H](O)CN2C(=O)[C@@H](NC(=O)N2CC3(CCC(N4CCC(c5cnc(N6CCN7c8cc(-c9ccccc9O)nnc8NC[C@H]7C6)nc5)CC4)CC3)C2)C(C)(C)C)cc1 [I-69]	–	–	> 90%	< 1 nM	–	–	> 90%	1 to 10 nM	D (D (<10 fold))
Cc1ncsc1-c1ccc(CNC(=O)[C@@H]2C[C@@H](O)CN2C(=O)[C@@H](NC(=O)[C@H]2CCC3(CC2)C[C@H](N2CCC(c4cnc(N5CCN6c7cc(-c8ccccc8O)nnc7NC[C@H]6C5)nc4)CC2)C3)C(C)(C)C)cc1 (some centres unmarked) [I-71]	–	–	–	1 to 10 nM	–	–	–	> 100 nM	A (A (>500 fold))
Cc1ncsc1-c1ccc(CNC(=O)[C@@H]2C[C@@H](O)CN2C(=O)[C@@H](NC(=O)N2CC3(CC(N4CCN(c5ccnc(N6CCN7c8cc(-c9ccccc9O)nnc8NC[C@H]7C6)n5)CC4)C3)C2)C(C)(C)C)cc1 [I-72]	–	–	70 to 90%	< 1 nM	–	–	70 to 90%	1 to 10 nM	D (D (<10 fold))
Cc1cc(F)ccc1C#CCNC(=O)[C@@H]1C[C@@H](O)CN1C(=O)[C@@H](NC(=O)[C@H]1CCC2(CC1)C[C@H](N1CCC(c3cnc(N4CCN5c6cc(-c7ccccc7O)nnc6NC[C@H]5C4)nc3)CC1)C2)C(C)(C)C (some centres unmarked) [I-115]	–	> 100 nM	–	–	–	–	–	–	–
